Entries after “also recorded” stand apart in the source; their conditions may differ.

Here are results for 3 compounds from article PMC8397418, “Novel Bis-Thiazole Derivatives: Synthesis and Potential Cytotoxic Activity Through Apoptosis With Molecular Docking Approaches” (Frontiers in Chemistry, 2021).

For test [1], the system named is KF-28 cells. Description: DNA content and cell cycle analysis (PI, flow cytometry). The conditions noted are these: 200 µM, 48 h; for Cell cycle phase G1 population: DMSO control 72%. It is filed as cell-based, human. As for the experimental part:
Studying the cell cycle phases by measuring DNA content is a crucial test that helps in evaluating the impact of a given drug(s) on dividing cells and may reflect the mechanism through which this drug(s) affects those cells. […] Compounds 5a, 5b, 5c, 5f, 5g, and 9 were added to similar numbers of cells at 200 µM for 48 h, and then, the different cell cycle phases were assessed by flow cytometric analysis.
The cells were seeded into six-well culture plates (3–5 × 10^5 cells/well) and incubated overnight at 37°C, under 5% CO2. The cells were then treated with indicated compounds for 48 h. Next, media supernatants and the cells were collected and washed with ice-cold PBS. Next, the cells were stained with PI (10 mg/ml) for 30 min and analyzed for DNA contents using flow cytometry analysis using an FL2 (λex/em 535/617 nm) signal detector (ACEA Novocyte™ flow cytometer, ACEA Biosciences, Inc., San Diego, CA, United States). For each sample, 12,000 events are acquired. Cell cycle distribution is calculated using a CytoFLex machine and analyzed by CytExpert software. Flow cytometric methodologies (annexin V/PI staining with cell cycle analyses) are carried out as previously described ([Nafie et al., 2020a]; [Nafie et al., 2020b]; [Gad et al., 2020]).
A general note: In flow cytometry, cells or beads pass a laser one at a time.

Test [2] relates to KF-28 cells. Briefly: Quantitative RT-PCR of apoptosis-related genes. It is filed as cell-based, human. The conditions noted are these: 48 h. On the procedure: Next, we investigated the pathway through which apoptosis is induced by compounds 5a, 5b, and 5f in KF-28 cells. For that purpose, after treating cells with each compound, RNA was extracted, cDNA was synthesized, and RT-PCR was performed to quantify the mRNA expression of pro-apoptotic genes (p53, bax, puma), caspases 3, 8 9, anti-apoptotic gene (Bcl-2), and Pim-1 kinase genes in KF-28 cells.
The cells were grown in 10 cm^2 culture dishes to a monolayer with a confluence of 90% in triplicates. After different treatments, the cells were washed twice with PBS and then pelleted by centrifugation for 5 min at 1800 rpm at 4°C. The cells were lysed by Trizol reagent (Invitrogen), and then total RNA was purified with the phenol/chloroform extraction method. Concentration and purity of RNA samples were measured using NanoDrop. The RNA purity was assessed as OD260/OD230 (≥1.5) using NanoDrop. gDNA was eliminated by DNase. The RNA from three biological samples was then pooled for mRNA analysis, cDNA was synthesized using the iScript kit (Bio-Rad, United States) according to the manufacturer’s recommendation, and RT-PCRs consisted of 8.34 µL Fluocycle® II SYBR® (Euroclone, Milan, Italy), 0.5 µL of both 10 µM forward and reverse primers, 1 µL cDNA, and 6.34 µL of H2O. All reactions were performed for 35 cycles using the following temperature profile: 95°C for 5 min (initial denaturation), 95°C for […] (denaturation), 55°C for […] (annealing), and 72°C for […] (extension) ([Nafie et al., 2020a]; [Sarhan et al., 2020]). Then, the Ct values were collected, with the folds of changes between all the samples.

Test [3] concerns MEF normal mouse embryonic fibroblast. Briefly: MTT cytotoxicity assay, MEF. The following applies: n = 3. It is filed as cell-based. In general terms: Tetrazolium dyes change colour on reduction, which living cells bring about.
Test [4] has as its system C-myc in KF-28 cells. Briefly: Western blot of C-myc expression. The conditions noted are these: two days, vs DMSO. It is filed as cell-based, human. From the text: Pim-1 has been classified as a weak oncogene. However, a very strong synergism with regard to tumorigenicity occurs between Pim-1 and C-myc. This synergism is observed with bitransgenic mice overexpressing C-myc and Pim-1 in lymphoid tissue ([Möröy et al., 1991]). To further validate the simulation and docking data which introduced Pim-1 kinase as a potential target molecule for some of the tested compounds, we decided to check the effect of treatment with the selected compounds on the C-myc protein expression as a downstream target molecule known to be phosphorylated and stabilized by Pim-1 as a kinase ([Zhang et al., 2008]). […] Taking into consideration the fact that Pim-1 phosphorylates C-myc and controls its stability ([Zhang et al., 2008]) may conclude that the reduction of C-myc expression under the indicated compounds is due to the inhibition of Pim-1 activity (Figure 3). Therefore, the speculated inhibition of Pim-1 is supported by the above-mentioned qPCR data (Figure 3) and further supported by C-myc downregulation. Our results agree with the reported one which states that some thiazole derivatives are potent inhibitors against protein kinases including Pim-1 kinase ([Mohareb et al., 2019]).
Cell lysates were prepared by lysing cells in RIPA buffer (10 mM Tris (pH 7.4), 150 mM NaCl, 1% Triton X-100, 1% Na deoxycholate), supplemented with protease inhibitor cocktail (Sigma). Protein concentration of whole cell lysates was determined by the […] using the BSA kit (Pierce), and then equal protein amounts were heated to 95 °C for 5 min with sodium dodecyl sulfate (SDS) sample buffer (25 ml glycerol, 31.2 ml Tris buffer, 7.5 ml SDS, a dash of bromophenol blue/100 ml) and run on 15% SDS polyacrylamide gel electrophoresis (SDS-PAGE). Protein samples were then blotted onto PVDF membranes (Immobilon P, Watford, United Kingdom). The membranes were incubated in blocking solution (5% non-fat milk in PBS) for 1 h and then in primary antibody (anti-human C-myc pAb (Abcam; at dilution of 2:1,000) or GAPDH mAb (Santa Cruz; at dilution of 20:1,000)) overnight. After 3 × 10 min washes in TBS (0.1% Tween-20 in PBS), the membrane was incubated for 1 h at room temperature with horseradish-peroxidase–linked (HRP) secondary anti-rabbit or anti-mouse Ab (1:1,000 dilution in PBS). Signals on the membrane were developed using ECL reagent (Amersham, CA, United States) and then were imaged with the Chemidoc system (Bio-Rad, United States).
On the technique in general: Immunoblotting shows a protein as a band on a membrane.

As a reminder, the IC50 is the concentration that gives 50% inhibition. A lower IC50 goes with inhibition by little substance. On to `Cc1[nH]c(=NN=C2CCC(=NN=c3[nH]c(C)c(N=Nc4ccccc4)s3)CC2)sc1N=Nc1ccccc1` [5a, 1,4-Bis((5-phenylazo-4-methylthiazol-2-ylidene)hydrazono)cyclohexane], for which, in test [1], the “Cell cycle phase S population” value was determined as 11.4% and the “Cell cycle phase G1 population” value is on record as 75.9%. In addition, in test [2], the “Bcl-2 expression, maximum decrease” value was “≈ 0.5 fold”; the “Pim-1 kinase expression, maximum decrease” value is reported as “≈ 0.31 fold”; the “bax mRNA level, maximum increase” value was around 5.2 fold; the “caspase 3 mRNA level, maximum increase” value is given as “≈ 6.2 fold”. In addition, in test [2], the “caspase 9 mRNA level, maximum increase” value is listed as around 5.6 fold; the “p53 mRNA relative expression” value is on record as “≈ 4.07 fold”; the “puma mRNA level, maximum increase” value is on record as “≈ 5.08 fold”. For the same compound, in test [3], the IC50 was 7.08 µM. Besides, the “C-myc protein expression (Western blot)” value in test [4] is recorded as “observable downregulation”.
Take `Cc1ccc(N=Nc2sc(=NN=C3CCC(=NN=c4[nH]c(C)c(N=Nc5ccc(C)cc5)s4)CC3)[nH]c2C)cc1` [5b, 1,4-Bis((5-(4-tolylazo)-4-methylthiazol-2-ylidene)hydrazono)cyclohexane]: in test [1], the “Cell cycle phase S population” value is reported as 4.5% and the “Cell cycle phase G1 population” value is 85.6%. Also, in test [2], the “bax mRNA level, maximum increase” value is listed as around 3.33 fold; the “p53 mRNA relative expression” value was “≈ 3.41 fold”; the “puma mRNA level, maximum increase” value is listed as “≈ 4.14 fold”. This compound showed an IC50 in test [3] of 2.34 µM. In addition, in test [4], the “C-myc protein expression (Western blot)” value is “observable downregulation; also recorded: Appreciated downregulation”.
As for `Cc1[nH]c(=NN=C2CCC(=NN=c3[nH]c(C)c(N=Nc4ccccc4Cl)s3)CC2)sc1N=Nc1ccccc1Cl` [5f, 1,4-Bis((5-(2-chlorophenylazo)-4-methylthiazol-2-ylidene)hydrazono)cyclohexane], the “Cell cycle phase G1 population” value in test [1] amounted to 76.9%. In addition, in test [2], the “Bcl-2 expression, maximum decrease” value is recorded as “≈ 0.76 fold”; the “Pim-1 kinase expression, maximum decrease” value was “≈ 0.86 fold”; the “bax mRNA level, maximum increase” value is on record as around 2.33 fold; the “caspase 3 mRNA level, maximum increase” value is on record as “≈ 6.9 fold”. For the same compound, in test [2], the “caspase 8 mRNA level, maximum increase” value is reported as around 5.5 fold; the “caspase 9 mRNA level, maximum increase” value is reported as around 6.0 fold; the “p53 mRNA relative expression” value is “≈ 3.81 fold”; the “puma mRNA level, maximum increase” value is “≈ 3.14 fold”. In addition, in test [3], the IC50 was above 200 µM. For the same compound, in test [4], the “C-myc protein expression (Western blot)” value is “observable downregulation; also recorded: Appreciated downregulation”.
